This is an account of results in patent US20070232601A1, “Vla-4 Inhibitor” (priority 2004, published 2007).

For the experiment, the target named is T1, hα4 and β1 integrins (VLA-4) (Homo sapiens, UniProt P05556+P13612).
T1 construct: expressed in transfected cells; host or cells: CHO cells
T1 sequence (P13612 34-1032): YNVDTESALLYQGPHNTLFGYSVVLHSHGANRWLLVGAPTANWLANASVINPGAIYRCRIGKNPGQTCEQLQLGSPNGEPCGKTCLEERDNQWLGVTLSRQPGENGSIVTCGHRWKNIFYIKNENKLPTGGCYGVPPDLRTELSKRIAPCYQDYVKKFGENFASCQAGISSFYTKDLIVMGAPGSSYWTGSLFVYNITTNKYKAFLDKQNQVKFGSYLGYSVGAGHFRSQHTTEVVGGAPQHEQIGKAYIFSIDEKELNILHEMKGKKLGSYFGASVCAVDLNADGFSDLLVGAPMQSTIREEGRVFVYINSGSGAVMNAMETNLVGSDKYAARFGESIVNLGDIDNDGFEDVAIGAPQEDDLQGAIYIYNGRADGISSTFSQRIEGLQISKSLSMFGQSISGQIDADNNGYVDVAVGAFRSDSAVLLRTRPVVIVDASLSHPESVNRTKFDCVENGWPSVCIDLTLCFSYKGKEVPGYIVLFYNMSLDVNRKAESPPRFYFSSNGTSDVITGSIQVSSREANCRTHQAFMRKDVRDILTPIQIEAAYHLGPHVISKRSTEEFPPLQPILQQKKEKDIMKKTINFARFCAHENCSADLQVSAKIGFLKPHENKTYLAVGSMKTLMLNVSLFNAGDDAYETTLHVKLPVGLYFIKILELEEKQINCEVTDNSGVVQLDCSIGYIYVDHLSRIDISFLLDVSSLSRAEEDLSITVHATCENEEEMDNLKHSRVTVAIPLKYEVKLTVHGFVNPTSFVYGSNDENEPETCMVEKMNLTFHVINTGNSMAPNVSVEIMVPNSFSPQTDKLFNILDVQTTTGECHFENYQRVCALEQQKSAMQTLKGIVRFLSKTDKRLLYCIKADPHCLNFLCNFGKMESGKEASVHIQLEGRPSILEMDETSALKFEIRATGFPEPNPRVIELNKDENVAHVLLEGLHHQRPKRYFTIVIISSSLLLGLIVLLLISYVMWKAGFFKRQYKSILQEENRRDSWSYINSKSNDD
T1 sequence (P05556 21-798): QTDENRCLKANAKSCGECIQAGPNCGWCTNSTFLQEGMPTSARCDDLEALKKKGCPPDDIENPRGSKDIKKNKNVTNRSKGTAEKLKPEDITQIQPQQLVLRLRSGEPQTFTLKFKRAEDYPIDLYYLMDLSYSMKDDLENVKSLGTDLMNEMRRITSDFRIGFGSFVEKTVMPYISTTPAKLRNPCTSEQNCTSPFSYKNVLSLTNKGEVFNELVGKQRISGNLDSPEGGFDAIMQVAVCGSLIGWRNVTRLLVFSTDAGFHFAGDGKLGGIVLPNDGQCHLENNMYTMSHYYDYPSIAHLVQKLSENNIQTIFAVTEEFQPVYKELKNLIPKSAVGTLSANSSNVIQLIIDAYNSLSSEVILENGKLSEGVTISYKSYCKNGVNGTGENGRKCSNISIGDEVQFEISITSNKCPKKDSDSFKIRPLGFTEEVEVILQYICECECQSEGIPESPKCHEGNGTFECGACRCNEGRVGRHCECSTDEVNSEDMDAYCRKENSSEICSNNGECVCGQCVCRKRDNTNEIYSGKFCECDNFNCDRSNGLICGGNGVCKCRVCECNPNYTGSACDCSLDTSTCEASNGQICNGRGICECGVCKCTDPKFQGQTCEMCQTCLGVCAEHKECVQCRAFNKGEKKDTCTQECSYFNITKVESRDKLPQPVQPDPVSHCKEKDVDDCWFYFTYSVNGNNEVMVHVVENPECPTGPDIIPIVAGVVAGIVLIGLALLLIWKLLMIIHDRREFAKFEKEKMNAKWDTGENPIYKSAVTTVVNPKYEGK
Kind of experiment: In vitro evaluation: inhibition of binding of CHO cells expressing hα4 and β1 integrins to Eu3+-hVCAM-1 D1D7-IgG. The settings on record: ligand Eu3+-hVCAM-1 D1D7-IgG 2 nM, Ki calculated from IC50. The procedure: CHO cells which were forced to be expressed by transduction of hα4 and β1 integrins are seeded (3×10^4 cells/100 μl/well) on a Costar 3599 plate, and cultured for 2 days. A medium is washed with a buffer A* two times, and Eu^3+-hVCAM-1 D1D7-IgG which was diluted with an assay buffer A** to 2 nM is added at 50 μl/well. A test substance which was diluted with 2% DMSO-assay buffer (in the presence or the absence of 6% human serum albumin) is added at 50 μl/well (A solution which was separately diluted is added to a well in which Scatchard analysis is performed), this is stirred with a plate mixer for 5 minutes, and allowed to stand at room temperature for 1 hour. Thereafter, this is washed with a buffer A four times, a potentiating reagent (manufactured by DELFIA) is added at 100 μl/well, this is shaken for 5 minutes using a plate mixer, and a fluorescence intensity is measured with a time-resolved fluorometer (DELFIA Wallac). IC50 (concentration at which binding of CHO cell and Eu^3+-hVCAM-1 D1D7-IgG is inhibited by 50%) of a test substance is obtained from an integration rate obtained from a calculation equation: [(FT−FNS)−(FI−FNS)]/[(FT−FNS)]×100, wherein FT indicates a fluorescence intensity of a well not containing a test substance, FNS indicates a fluorescence intensity of a well not containing a test substance and hVCAM-1 D1D7-IgG, and FI indicates a fluorescence intensity containing a test substance. A Kd value showing strength of binding and Bmax (maximum binding amount) were presumed in a range of 0.06 to 20 nM according to the Scachard analysis method. [formula]
A Ki value was calculated according to the above equation ([L] is ligand concentration)
[* buffer A: 25 mM HEPES (pH 7.5), 150 mM NaCl, 1 mM Ca^2+, 1 mM Mg^2+, 4 mM Mn^2+; ** assay buffer: 25 mM HEPES (pH 7.5), 150 mM NaCl, 1 mM Ca^2+, 1 mM Mg^2+, 4 mM Mn^2+, 0.1% BSA, 20 μM DTPA, with/without 6% ALBUMIN, HUMAN SERUM (C/NA-1653, SIGMA)]
On to `CCO[C@H]1CCN(C(=O)Cc2cc(Cl)c(NC(=O)c3cn(C)c4ccccc34)cc2F)[C@@H]1c1ncc(CCC(=O)O)o1` [Example 97, 3-[2-[1-[[5-Chloro-2-fluoro-4-(1-methyl-3-indolylcarbonylamino)phenyl]acetyl]-(3S)-ethoxy-(2S)-pyrrolidinyl]-5-oxazolyl]propionic acid], for which the Ki was 9.2 nM. In the case of `Cc1ccc(F)cc1Nc1nc2ccc(CC(=O)N3[C@H](c4ncc(CCC(=O)O)s4)C[C@@H]4CCCC[C@@H]43)c(F)c2o1` [Example 62, 3-[2-[1-[7-Fluoro-2-(5-fluoro-2-methylphenyl)amino-6-benzoxazolylacetyl]-(2S)-octahydroindolyl]-5-thiazolyl]propionic acid] it was 2.3 nM; in that of `COc1ccccc1Nc1nc2ccc(CC(=O)N3C[C@@H](OC)C[C@H]3c3ncc(CCC(=O)O)o3)c(F)c2o1` [Example 17, 3-[2-[1-[[7-Fluoro-2-(2-methoxyphenylamino)-1,3-benzoxazol-6-yl]acetyl]-(4S)-methoxy-(2S)-pyrrolidinyl]-5-oxazolyl]propionic acid], 15 nM; in that of `Cn1cc(C(=O)Nc2cc(F)c(CC(=O)N3CCC[C@H]3c3ncc(CCC(=O)O)s3)cc2Cl)c2ccccc21` [Example 27, 3-[2-[1-[5-Chloro-2-fluoro-4-(1-methyl-3-indolylcarbonyl)aminophenylacetyl]-(2S)-pyrrolidinyl]-5-thiazolyl]propionic acid], 1.2 nM. Regarding `Cn1cc(C(=O)Nc2cc(F)c(CC(=O)N3[C@H](c4ncc(CCC(=O)O)s4)C[C@@H]4CCCC[C@@H]43)cc2Cl)c2ccccc21` [Example 59, 3-[2-[1-[5-Chloro-2-fluoro-4-(1-methyl-3-indolylcarbonyl)aminophenylacetyl]-(2S)-octahydroindolyl]-5-thiazolyl]propionic acid], the Ki is 17 nM.

Take `COC[C@@]1(c2ncc(CCC(=O)O)s2)C[C@H](OC)CN1C(=O)Cc1cc(Cl)c(NC(=O)c2cn(C)c3ccccc23)cc1Cl` [Example 133, 3-{2-[(2R,4S)-1-[2-(2,5-dichloro-4-{[(1-methyl-1H-indol-3-yl)carbonyl]amino}phenyl)acetyl]-4-methoxy-2-(methoxymethyl)pyrrolidinyl]thiazol-5-yl}propionic acid]: the Ki is 4.5 nM.

Consider `CO[C@H]1C[C@@H](c2cc(CCC(=O)O)on2)N(C(=O)Cc2cc(Cl)c(NC(=O)c3cn(C)c4ccccc34)cc2F)C1` [Example 31, 3-[3-[1-[5-Chloro-2-fluoro-4-(1-methyl-3-indolylcarbonyl)aminophenylacetyl]-(4S)-methoxy-(2S)-pyrrolidinyl]-5-isoxazolyl]propionic acid], for which the Ki is 5.8 nM.

In the case of `CO[C@H]1C[C@@H](c2ncc(CCC(=O)O)s2)N(C(=O)Cc2cc(Cl)c(NC(=O)c3coc4ccccc34)cc2F)C1` [Example 6, 3-[2-[1-[4-[(1-Benzofuran-3-ylcarbonyl)amino]-5-chloro-2-fluorophenylacetyl]-(4S)-methoxy-(2S)-pyrrolidinyl]-5-thiazolyl]propionic acid], the Ki was 0.4 nM. As to `CCOC[C@@H]1CC[C@@H](c2ncc(CCC(=O)O)s2)N1C(=O)Cc1cc(Cl)c(NC(=O)c2csc3ccccc23)cc1F` [Example 49, 3-[2-[1-[4-[(3-Benzo[b]thienylcarbonyl)amino]-5-chloro-2-fluorophenylacetyl]-(5S)-ethoxymethyl-(2S)-pyrrolidinyl]-5-thiazolyl]propionic acid], the Ki was 22 nM. Consider `Cn1cc(C(=O)Nc2cc(F)c(CC(=O)N3C[C@@H](OC4CCC4)C[C@H]3c3ncc(CCC(=O)O)s3)cc2Cl)c2ccccc21` [Example 40, 3-[2-[1-[5-Chloro-2-fluoro-4-(1-methyl-3-indolylcarbonyl)aminophenylacetyl]-(4S)-cyclobutoxy-(2S)-pyrrolidinyl]-5-thiazolyl]propionic acid], for which the inhibition constant (Ki) was 4 nM. The value for “3-[2-[1-[4-(3-Benzo[b]thiophenylcarbonyl)amino-5-chloro-2-fluorophenyl]acetyl]-(3S)-ethoxy-(2S)-pyrrolidinyl]-5-oxazolyl]propionic acid methyl ester [Example 99]” was 5.3 nM. The value for `CCOC[C@@H]1CC[C@@H](c2ncc(CCC(=O)O)s2)N1C(=O)Cc1cc(Cl)c(NC(=O)c2coc3ccccc23)cc1F` [Example 50, 3-[2-[1-[4-[(1-Benzofuran-3-ylcarbonyl)amino]-5-chloro-2-fluorophenylacetyl]-(5S)-ethoxymethyl-2(2S)-pyrrolidinyl)-5-thiazolyl]propionic acid] was 51 nM; that for `O=C(O)CCn1nnc([C@@H]2CCCN2C(=O)Cc2cc(Cl)c(NC(=O)c3csc4ccccc34)cc2F)n1` [Example 126, 3-[5-[1-[[4-[(3-Benzo[b]thiophenylcarbonyl)amino]-5-chloro-2-fluorophenyl]acetyl]-(2S)-pyrrolidinyl]-2H-tetrazol-2-yl]propionic acid] was 19 nM. For the molecule `O=C(O)CCc1cnc([C@@H]2CCCN2C(=O)Cc2cc(Cl)c(NC(=O)c3csc4ccccc34)cc2Cl)s1` [Example 28, 3-[2-[1-[[4-[(3-Benzo[b]thienylcarbonyl)amino]-2,5-dichlorophenyl]acetyl]-(2S)-pyrrolidinyl]-5-thiazolyl]propionic acid], the Ki is 0.86 nM.

With `COc1cc(CC(=O)N[C@@H](CC(C)C)c2cc(CCC(=O)O)on2)ccc1NC(=O)Nc1ccccc1C` [CP664511], the Ki is 1.5 nM. The value for `O=C(O)CCc1cnc([C@@H]2C[C@H](OC3CCC3)CN2C(=O)Cc2cc(Cl)c(NC(=O)c3coc4ccccc34)cc2F)s1` [Example 43, 3-[2-[1-[4-[(1-Benzofuran-3-ylcarbonyl)amino]-5-chloro-2-fluorophenylacetyl]-(4S)-cyclobutoxy-(2S)-pyrrolidinyl]-5-thiazolyl]propionic acid] was 2.9 nM.

With `CCO[C@H]1CCN(C(=O)Cc2ccc3nc(Nc4cc(F)ccc4C)oc3c2F)[C@@H]1c1ncc(CCC(=O)O)o1` [Example 103, 3-[2-[1-[[7-Fluoro-2-(5-fluoro-2-methylphenyl)amino-6-benzoxazolyl]acetyl]-(3S)-ethoxy-(2S)-pyrrolidinyl]-5-oxazolyl]propionic acid], the Ki was 2.6 nM.

For `O=C(O)CCc1cnc([C@@H]2C[C@H](F)CN2C(=O)Cc2cc(Cl)c(NC(=O)c3csc4ccccc34)cc2Cl)s1` [Example 20, 3-[2-[1-[[4-[(3-Benzo[b]thienylcarbonyl)amino]-2,5-dichlorophenyl]acetyl]-(4S)-fluoro-(2S)-pyrrolidinyl]-5-thiazolyl]propionic acid], the Ki is 0.69 nM. In the case of `CO[C@H]1C[C@@H](c2cc(CCC(=O)O)on2)N(C(=O)Cc2cc(Cl)c(NC(=O)c3cn(C)c4ccccc34)cc2Cl)C1` [Example 30, 3-[3-[1-[2,5-Dichloro-4-(1-methyl-3-indolylcarbonylamino)phenylacetyl]-(4S)-methoxy-(2S)-pyrrolidinyl]-5-isoxazole]propionic acid] it was 5.8 nM; in that of `CCO[C@H]1CCN(C(=O)Cc2ccc3nc(Nc4cc(F)ccc4OC)oc3c2F)[C@@H]1c1ncc(CCC(=O)O)o1` [Example 105, 3-[2-[1-[[7-Fluoro-2-(5-fluoro-2-methoxyphenyl)amino-6-benzoxazolyl]acetyl]-(3S)-ethoxy-(2S)-pyrrolidinyl]-5-oxazolyl]propionic acid], 11 nM. Take `CCO[C@H]1CCN(C(=O)Cc2cc(Cl)c(NC(=O)c3coc4ccccc34)cc2Cl)[C@@H]1c1ncc(CCC(=O)O)o1` [Example 102]: the Ki is 17 nM. In the case of `Cn1cc(C(=O)Nc2cc(Cl)c(CC(=O)N3C[C@@H](OC4CCC4)C[C@H]3c3ncc(CCC(=O)O)s3)cc2Cl)c2ccccc21` [Example 39, 3-[2-[1-[2,5-Dichloro-4-(1-methyl-3-indolylcarbonylamino)phenylacetyl]-(4S)-cyclobutoxy-(2S)-pyrrolidinyl]-5-thiazolyl]propionic acid], the Ki was 6.3 nM.

`CCOC[C@@H]1CC[C@@H](c2ncc(CCC(=O)O)s2)N1C(=O)Cc1ccc2nc(Nc3cc(F)ccc3OC)oc2c1F` [Example 52, 3-[2-[(5S)-ethoxymethyl-1-[7-fluoro-2-(5-fluoro-2-methoxyphenylamino)-6-benzoxazolylacetyl]-(2S)-pyrrolidinyl]-5-thiazolyl]propionic acid]: the Ki was 34 nM. The value for `CCO[C@H]1CCN(C(=O)Cc2cc(Cl)c(NC(=O)c3csc4ccccc34)cc2Cl)[C@@H]1c1ncc(CCC(=O)O)o1` [Example 100] was 7.7 nM.

As usually defined, the Ki is a measure of affinity in units of concentration, obtained from inhibition or displacement.
